Values joined by “and” are separate entries in the source; they are usually repeats but may differ in a detail not shown here. Identical values can stand only once.
What was measured:
[1] = system: rats with middle cerebral artery occlusion (MCAO); assay: Cylinder test, overall asymmetry (%), MCAO rats (Example 2); assay type: in vivo, Sprague Dawley rat
Procedure: (§1) Dosing and Treatment: Rats were treated in accordance with the dosing schedule shown in Tables 2A, 2B, 3 and FIG. 2, with each Phase being a two week period of time. A solution of 4-AP was used in this experiment. Dosing was started at 4 weeks after ischemic event. 4-aminopyridine was dissolved in water for injection (WFI, Cellgro) and sterile filtered. […] Vehicle control treatment was WFI delivered at 2 mL/kg by gastric gavage. […] Starting on day 30 after MCAO (Day 30, start of phase 1), the animals received gavage dosing of solutions (2 mL/kg) approximately 12 hours apart, for a total of five doses. The same schedule was repeated with different treatment on Day 44 and Day 58 for phase 2 and 3 of the study, respectively. Animals were not treated during the 10 days between phases (washout period). Treatment groups: Dosing was started 4 weeks after MCAO surgery. During these 4 weeks, weekly behavioral assessments, as defined below, were performed. Two dose levels of 4-AP plus vehicle control were assessed, with treatment starting at 4 weeks after ischemic event. […] Animals were given the first dose and behavioral assessments were performed starting 60 minutes after dosing. Animals then received the second dose that day at the appropriate time and b.i.d (preferably every 12 hours) thereafter for 2 more days (3 total days of dosing, 5 total doses). One hour after the 5th dose, animals were subjected to behavioral assessments as defined below. Following the final behavioral assessment, drug was withdrawn for 10 or 11 days, behavior was re-assessed, and then animals were re-challenged with a cross-over treatment (Phase 2 of Table 2B) as described in Tables 2A, 2B and 3, followed by the same behavioral testing and dosing regimen. This cross-over was repeated one more time as well (Phase 3 of Table 2B) (see FIG. 2). Cylinder Test: Evaluation was performed at Day −1 (pre-operation), Day 7, Day 21, Day 30, Day 32, Day 44, Day 46, Day 58, Day 60. This test assessed limb use asymmetry. Rats were placed in a transparent cylinder (20 cm in diameter and 30 cm in height) for 3-6 minutes. A mirror was placed behind the cylinder to determine forelimb movements when animal was turned away from the camera. […] Simultaneous use of both left and right forelimbs while contacting the wall during a full rear was also scored. A total number of 20 forelimb placings were counted during a trial. Data was expressed in terms of percent use of the non-impaired and or impaired forelimb relative to the total number of limb use observations for wall movements.

[2] = system: rats with middle cerebral artery occlusion (MCAO); assay: Cylinder test, total movement, MCAO rats (Example 2); assay type: in vivo, Sprague Dawley rat; settings: individual animals and Mean (N=15), listed as 4-AP
Procedure: as §1

[3] = system: rats with middle cerebral artery occlusion (MCAO); assay: Infarct volume measurement (H&E), MCAO rats (Example 2); assay type: in vivo, Sprague Dawley rat; settings: Day 63
Procedure: Euthanasia and post-mortem processing: Infarct Volume analysis. After the last behavioral assessment, rats were anesthetized deeply with ketamine/xylazine (100 mg/kg ketamine, 10 mg/kg xylazine, i.p.) and perfused transcardially with normal saline (with heparin 2 unit/ml) followed by 4% paraformaldehyde or formalin on Day 63. Brains were harvested and processed for histological assessment. A subset of 10 brains per group was processed for infarct volume measurement (H&E staining).
(§2) Infarct measurement: Brains were embedded in paraffin and 5 micron thick coronal sections were cut using a microtome. Sections were stained with hematoxylin and eosin (H&E), using standard methods. Seven coronal sections (+4.7, +2.7, +0.7, −1.3, −3.3, −5.3 and −7.3, compared to bregma respectively) from each brain were photographed by a digital camera, and the infarct area on each slice was determined by NIH Image (Image J) using the “indirect method” (area of the intact contralateral [left] hemisphere−area of intact regions of the ipsilateral [right] hemisphere) to correct for brain edema. Infarct areas were then summed among slices and multiplied by slice thickness (the distance between sections) to give total infarct volume, which was expressed as a percentage of intact contralateral hemispheric volume.

[4] = system: rats with middle cerebral artery occlusion (MCAO); assay: Infarct volume measurement, MCAO rats (Example 17); assay type: in vivo, Sprague Dawley rat
Procedure: as §2
Euthanasia and post-mortem processing: At day 70 after MCAO rats were anesthetized as described in Example 2, above.
Infarct measurement: Infarct measurement was performed as described in Example 2, above.
Statistical Methods: Changes from pre-treatment baseline values (Day 56) were calculated for each behavioral score at each time point assessed after dosing. Mean behavioral parameter data were subject to Analysis of Variance (ANOVA). Infarct volume data were analyzed by ANOVA. All data were expressed as means±SEM.

[5] = typical; also printed as 94 ng/mL^−1; cited from earlier work
[6] = Body weight (g) of MCAO rats (Example 2); settings: individual animals and Mean (N=15), listed as 4-AP
[7] = Group 1, D30, treatment phase 1 (high-dose 4-AP)
[8] = Group 1, D32, treatment phase 1 (high-dose 4-AP)
[9] = Group 1, D44, treatment phase 2 (low-dose 4-AP)
[10] = Group 1, D46, treatment phase 2 (low-dose 4-AP)

In the case of `Nc1ccncc1` [4-aminopyridine], the “Cylinder Test Score (Overall Asymmetry (%)) Group 2, D30” value ([1]; Group 2, D30, treatment phase 1 (low-dose 4-AP), individual animals and Mean (N=15), listed as 4-AP) is reported as 0.00% and 75.00% and 23.33% and 20.00% and 6.90%, the “Cylinder Test Score (Overall Asymmetry (%)) Group 2, D32” value ([1]; Group 2, D32, treatment phase 1 (low-dose 4-AP), individual animals and Mean (N=15), listed as 4-AP) is reported as 33.33% and 16.00% and 20.00% and 50.00% and 0.00% and the “Cylinder Test Score (Overall Asymmetry (%)) Group 2, D58” value ([1]; Group 2, D58, treatment phase 3 (high-dose 4-AP), individual animals and Mean (N=12), listed as 4-AP) is reported as 50.00% and 30.00% and 88.00% and 33.33%. The “Cylinder Test Score (Overall Asymmetry (%)) Group 2, D60” value ([1]; Group 2, D60, treatment phase 3 (high-dose 4-AP), individual animals and Mean (N=14), listed as 4-AP) was 64.00% and 20.00% and 10.00% and 0.00% (3×) and −100.00% (2×), the “Cylinder Test Score (Overall Asymmetry (%)) Group 3, D44” value ([1]; Group 3, D44, treatment phase 2 (high-dose 4-AP), individual animals and Mean (N=13), listed as 4-AP) was 40.00% and 20.00% and 100.00% and 0.00% and the “Cylinder Test Score (Overall Asymmetry (%)) Group 3, D46” value ([1]; Group 3, D46, treatment phase 2 (high-dose 4-AP), individual animals and Mean (N=13), listed as 4-AP) was 50.00% and −60.00% and 0.00% and 6.90%. The “Cylinder Test Score (Overall Asymmetry (%)) Group 3, D58” value ([1]; Group 3, D58, treatment phase 3 (low-dose 4-AP), individual animals and Mean (N=15), listed as 4-AP) was 0.00% (2×) and 5.00%, the “Cylinder Test Score (Overall Asymmetry (%)) Group 3, D60” value ([1]; Group 3, D60, treatment phase 3 (low-dose 4-AP), individual animals and Mean (N=15), listed as 4-AP) was −25.00% and 0.00% (2×) and 16.00% and the “Effect on body symmetry and coordination, cylinder test (FIG. 7)” value ([1]; reversible and dose-dependent) was “effective to improve body symmetry and coordination”. The “Cylinder Test (Total Movement) Group 1, D30” value [2, 7] was 0.00 (5×) and 75.00 and 2.00 and 10.00 (2×) and 6.00 and 13.00 and 12.00 and 4.00 and 5.00 (2×), the “Cylinder Test (Total Movement) Group 1, D32” value [2, 8] was 11.00 and 54.00 and 22.00 and 39.00 and 10.00 and 8.00 and 14.00 and 15.00 and 0.00 (2×) and 38.00 and 2.00 and 1.00 and 6.00 and 23.00 and the “Cylinder Test (Total Movement) Group 1, D44” value [2, 9] was 28.00 and 93.00 and 48.00 and 57.00 and 47.00 and 9.00 and 11.00 and 5.00 and 66.00 and 25.00 and 6.00 and 43.00 and 20.00 and 7.00. The “Cylinder Test (Total Movement) Group 1, D46” value [2, 10] was 11.00 and 47.00 and 43.00 and 48.00 and 46.00 and 12.00 and 63.00 and 4.00 and 0.00 (2×) and 13.00 and 2.00 and 6.00 and 39.00 and 24.00, the “Mean infarct volume (% of contralateral hemisphere)” value ([3]; Group 1 (sequence high, low, vehicle)) was 45.0 (±1.8) % and the “Mean infarct volume (% of contralateral hemisphere)” value ([3]; Group 2 (sequence low, vehicle, high)) was 41.4 (±2.3) %. For the same compound, the “Mean infarct volume (% of contralateral hemisphere)” value ([3]; Group 3 (sequence vehicle, high, low)) was 39.0 (±3.3) %, the “Mean (SE) Infarct Volume (%)” value ([4]; 4-AP dose escalation 0.5, 1 and 2 mg/kg p.o. b.i.d. Days 56-65 after MCAO) was 40.0 (2.3) % and the “Infarct volume, 4-aminopyridine versus vehicle (water)” value ([4]; Day 70 after MCAO) was “no differences in infarct volume were observed”. For the same compound, the “4-AP plasma concentrations obtained in clinical studies” value [5] was less than 1 µM, the “Weight (g) Group 1, D30” value [6, 7] was 425 g (2×) and 450 g and 435 g and 490 g and 544 g and 470 g and 512 g and 434 g and 482 g and 480 g and 360 g and 422 g and 496 g and 372 g and the “Weight (g) Group 1, D32” value [6, 8] was 411 g and 441 g and 417 g and 470 g and 515 g and 454 g and 496 g and 422 g and 453 g and 461 g and 351 g and 404 g and 412 g and 477 g and 360 g. The “Weight (g) Group 1, D44” value [6, 9] was 455 g and 501 g and 447 g and 511 g and 566 g and 480 g and 545 g and 454 g and 502 g (2×) and 400 g and 440 g and 456 g and 494 g and 390 g, the “Weight (g) Group 1, D46” value [6, 10] was 448 g and 490 g (2×) and 440 g and 494 g (2×) and 570 g and 488 g and 552 g and 457 g and 491 g and 386 g and 442 g and 446 g and 379 g and the “Weight (g) Group 2, D30” value ([6]; Group 2, D30, treatment phase 1 (low-dose 4-AP)) was 474 g and 380 g (2×) and 414 g and 444 g and 410 g and 480 g (2×) and 540 g and 475 g and 512 g and 434 g and 420 g and 416 g and 431 g. For the same compound, the “Weight (g) Group 2, D32” value ([6]; Group 2, D32, treatment phase 1 (low-dose 4-AP)) was 473 g and 369 g and 410 g and 426 g and 406 g and 455 g and 541 g and 467 g and 508 g and 476 g and 424 g and 403 g and 412 g and 374 g and 428 g, the “Weight (g) Group 2, D58” value ([6]; Group 2, D58, treatment phase 3 (high-dose 4-AP)) was 530 g and 425 g and 461 g and 477 g and 455 g and 540 g and 635 g and 535 g and 570 g and 546 g and 499 g and 456 g and 470 g and 432 g and 483 g and the “Weight (g) Group 2, D60” value ([6]; Group 2, D60, treatment phase 3 (high-dose 4-AP)) was 517 g and 410 g and 444 g (2×) and 460 g and 441 g and 519 g and 614 g and 508 g and 535 g and 530 g and 488 g and 447 g and 417 g and 471 g. The “Weight (g) Group 3, D44” value ([6]; Group 3, D44, treatment phase 2 (high-dose 4-AP)) was 460 g and 461 g and 469 g and 451 g and 423 g and 462 g and 463 g (2×) and 532 g and 572 g and 538 g and 442 g and 445 g (2×) and 453 g, the “Weight (g) Group 3, D46” value ([6]; Group 3, D46, treatment phase 2 (high-dose 4-AP)) was 440 g and 436 g (2×) and 455 g and 435 g (2×) and 402 g and 442 g and 502 g and 567 g and 497 g and 446 g and 430 g (2×) and 412 g and the “Weight (g) Group 3, D58” value ([6]; Group 3, D58, treatment phase 3 (low-dose 4-AP)) was 475 g and 486 g and 485 g and 467 g and 440 g and 472 g and 490 g and 550 g and 625 g and 573 g and 492 g and 462 g and 469 g and 476 g and 461 g. For the same compound, the “Weight (g) Group 3, D60” value ([6]; Group 3, D60, treatment phase 3 (low-dose 4-AP)) was 466 g and 479 g and 484 g (2×) and 463 g and 430 g and 465 g and 550 g and 613 g and 549 g and 468 g and 453 g and 456 g and 470 g and 447 g.
